Patent publication US10870647B2, “Imidazopyridine derivative, method for preparing same, and pharmaceutical composition containing same as active ingredient for preventing or treating cancer” (DAEGU-GYEONGBUK MEDICAL INNOVATION FOUNDATION, priority 2016, dated 2020)

Legend:
Experiment in all cases: Kinase selectivity, scanMAX Kinase assay panel (DiscoverX), % control at 1 uM
Type in all cases: binding
[1] = biological target: T1, scanMAX Kinase assay panel (Homo sapiens, UniProt Q13237); settings: PRKG2; 1 uM; read-out: Percent Control (%)
T1 construct: purchased DiscoverX
T1 sequence (Q13237 1-762): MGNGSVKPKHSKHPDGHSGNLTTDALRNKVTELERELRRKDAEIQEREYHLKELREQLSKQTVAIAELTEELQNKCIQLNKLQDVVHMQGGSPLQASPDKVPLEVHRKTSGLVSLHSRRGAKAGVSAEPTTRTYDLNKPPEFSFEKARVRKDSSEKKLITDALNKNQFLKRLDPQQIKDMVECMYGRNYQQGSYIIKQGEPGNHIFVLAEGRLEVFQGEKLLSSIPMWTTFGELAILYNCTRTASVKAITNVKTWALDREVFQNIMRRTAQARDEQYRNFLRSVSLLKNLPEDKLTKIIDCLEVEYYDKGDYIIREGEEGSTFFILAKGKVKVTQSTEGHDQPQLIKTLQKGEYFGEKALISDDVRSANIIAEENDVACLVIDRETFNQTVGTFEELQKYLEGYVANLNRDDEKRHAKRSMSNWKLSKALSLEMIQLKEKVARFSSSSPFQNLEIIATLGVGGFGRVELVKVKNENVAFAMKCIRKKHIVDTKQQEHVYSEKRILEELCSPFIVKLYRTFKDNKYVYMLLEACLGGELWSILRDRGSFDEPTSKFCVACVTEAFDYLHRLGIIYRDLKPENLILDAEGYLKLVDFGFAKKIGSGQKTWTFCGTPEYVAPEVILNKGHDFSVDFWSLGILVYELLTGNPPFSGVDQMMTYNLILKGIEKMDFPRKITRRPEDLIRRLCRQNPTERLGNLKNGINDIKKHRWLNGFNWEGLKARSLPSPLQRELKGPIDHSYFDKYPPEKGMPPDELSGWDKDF
How it was run: (§1)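 Binding across the scanMAX kinase panel was tested at 1 uM compound. % control = (compound − positive control)/(negative control − positive control) × 100; below 35 counted as active.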

[2] = biological target: T2, scanMAX Kinase assay panel (Homo sapiens, UniProt Q13470); settings: TNK1; 1 uM; read-out: Percent Control (%)
T2 construct: purchased DiscoverX
T2 sequence (Q13470 1-666): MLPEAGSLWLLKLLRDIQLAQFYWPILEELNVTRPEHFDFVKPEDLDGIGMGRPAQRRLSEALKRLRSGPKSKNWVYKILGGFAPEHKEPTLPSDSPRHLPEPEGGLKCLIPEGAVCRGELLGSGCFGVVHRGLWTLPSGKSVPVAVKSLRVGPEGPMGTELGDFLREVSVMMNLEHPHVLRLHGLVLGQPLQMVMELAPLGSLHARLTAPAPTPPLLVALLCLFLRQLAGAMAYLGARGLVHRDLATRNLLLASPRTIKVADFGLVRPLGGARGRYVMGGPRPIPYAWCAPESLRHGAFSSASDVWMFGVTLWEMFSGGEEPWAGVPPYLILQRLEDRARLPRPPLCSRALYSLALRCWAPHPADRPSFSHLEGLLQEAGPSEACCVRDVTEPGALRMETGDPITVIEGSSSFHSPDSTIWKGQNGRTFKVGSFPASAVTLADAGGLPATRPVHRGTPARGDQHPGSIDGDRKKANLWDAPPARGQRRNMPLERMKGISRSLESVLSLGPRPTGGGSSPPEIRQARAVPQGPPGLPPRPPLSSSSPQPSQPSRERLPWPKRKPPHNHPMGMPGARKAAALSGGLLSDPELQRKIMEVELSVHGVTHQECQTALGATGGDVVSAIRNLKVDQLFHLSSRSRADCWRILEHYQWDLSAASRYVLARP
How it was run: as §1

[3] = biological target: T3, scanMAX Kinase assay panel (Homo sapiens, UniProt Q8TD08); settings: ERK8; 1 uM; read-out: Percent Control (%)
T3 construct: purchased DiscoverX
T3 sequence (Q8TD08 1-544): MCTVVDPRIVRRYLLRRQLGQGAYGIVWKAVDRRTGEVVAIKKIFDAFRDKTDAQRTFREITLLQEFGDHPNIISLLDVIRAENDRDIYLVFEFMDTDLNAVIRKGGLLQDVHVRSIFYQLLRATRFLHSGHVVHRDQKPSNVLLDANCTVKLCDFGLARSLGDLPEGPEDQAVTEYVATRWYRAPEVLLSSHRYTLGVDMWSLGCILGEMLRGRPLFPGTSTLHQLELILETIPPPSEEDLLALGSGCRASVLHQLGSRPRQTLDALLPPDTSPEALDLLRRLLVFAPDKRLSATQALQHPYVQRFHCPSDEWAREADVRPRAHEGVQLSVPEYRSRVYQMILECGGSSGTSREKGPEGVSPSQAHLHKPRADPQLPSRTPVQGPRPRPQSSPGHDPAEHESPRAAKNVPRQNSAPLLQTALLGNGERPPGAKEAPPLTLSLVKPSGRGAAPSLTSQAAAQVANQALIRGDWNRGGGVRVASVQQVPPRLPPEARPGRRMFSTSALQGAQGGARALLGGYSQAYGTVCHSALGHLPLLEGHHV
How it was run: as §1

Cc1ccc(NC(=O)C2(C(=O)Nc3ccc(F)cc3)CC2)cc1C#Cc1cnc2c(Nc3cnn(C(C)C)c3)cccn12 [Example 78]
remaining binding at 1 µM [1]: 100%
remaining binding at 1 µM [2]: 100%
remaining binding at 1 µM [3]: 87%

Cc1cn(-c2cc(NC(=O)c3ccc(C)c(C#Cc4cnc5c(Nc6cnn(C)c6)cccn45)c3)cc(C(F)(F)F)c2)cn1 [Example 12, 4-methyl-N-(3-(4-methyl-1H-imidazol-1-yl)-5-(trifluoromethyl)phenyl)-3-((8-((1-methyl-1H-pyrazol-4-yl)amino)imidazo[1,2-a]pyridin-3-yl)ethynyl)benzamide]
remaining binding at 1 µM [1]: 90%
remaining binding at 1 µM [2]: 19%
remaining binding at 1 µM [3]: 71%

Cc1ccc(C(=O)Nc2ccc(CN3CCN(C)CC3)c(C(F)(F)F)c2)cc1C#Cc1cnc2c(Nc3cnn(C)c3)cccn12 [Example 1, 4-methyl-3-((8-((1-methyl-1H-pyrazol-4-yl)amino)imidazo[1,2-a]pyridin-3-yl)ethynyl)-N-(4-((4-methylpiperazin-1-yl)methyl)-3-(trifluoromethyl)phenyl)benzamide]
remaining binding at 1 µM [1]: 75%
remaining binding at 1 µM [2]: 0%
remaining binding at 1 µM [3]: 29%
